Our source for the remaining activity and Ki values is US8835440B2, “Cyclic pyrimidin-4-carboxamides as CCR2 receptor antagonists for treatment of inflammation, asthma and COPD” (Boehringer Ingelheim International GmbH, priority 2008, dated 2014).

The test concerns the target T1, CCR2 (Homo sapiens, UniProt P41597).
T1 construct: Membranes were prepared from THP-1 cells; endogenous in cells; host or cells: THP-1 cells (membrane preparation)
T1 sequence (P41597 1-360 isoform P41597-2): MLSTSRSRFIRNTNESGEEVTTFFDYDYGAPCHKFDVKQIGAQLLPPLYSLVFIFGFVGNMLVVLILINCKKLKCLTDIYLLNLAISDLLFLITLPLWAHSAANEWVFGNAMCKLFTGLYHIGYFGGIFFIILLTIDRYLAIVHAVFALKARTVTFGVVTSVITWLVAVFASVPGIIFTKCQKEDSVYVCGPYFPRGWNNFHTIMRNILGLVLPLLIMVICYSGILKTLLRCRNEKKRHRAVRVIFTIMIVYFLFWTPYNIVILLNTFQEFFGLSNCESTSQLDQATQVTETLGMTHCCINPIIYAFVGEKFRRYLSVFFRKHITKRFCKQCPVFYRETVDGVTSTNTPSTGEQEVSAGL
The experiment in a line: CCR2 receptor membrane binding assay ([125I]MCP-1, THP-1 cell membranes, SPA beads). Conditions: for remaining activity at 10 µM: @ 10 μM test compound, THP-1 membranes, read-out: CCR2 % ctrl @ 10 μM; for Ki: dissociation constant hKi, [125I]MCP-1 binding to THP-1 membranes. In short, it runs like this:
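Human THP-1 monocytic cell membranes, pre-coupled to WGA-PVT SPA beads, were incubated with compound and [125I]MCP-1 (ca. 25000 cpm) in 25 mM HEPES pH 7.2, 5 mM MgCl2, 0.5 mM CaCl2, 0.2% BSA, at 1% DMSO final. Bound radioactivity was counted after 8 h, and Ki was obtained by iterative mass-action fitting.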

In the case of `Cc1c(NCCc2ccc(Cl)c(Cl)c2)ncnc1C(=O)N1CCC(N2CCOC(c3ccccc3)C2)CC1` (stereo not shown) [Example 240], the remaining activity at 10 µM was determined as 7% and the Ki is 104 nM.
Take `Cc1c(NCC2Cc3ccccc3C2)ncnc1C(=O)N1CCC(N2CCOCC2)CC1` [Example 46]: the remaining activity at 10 µM was 12% and the Ki amounted to 225 nM.
In the same order, the values of `CCN(C1CCN(C2CCN(C(=O)c3ncnc(NCc4ccc(C(C)(C)C)cc4)c3C)CC2)CC1)S(C)(=O)=O` [Example 206] are 3% and 44 nM.
Regarding `Cc1c(NCc2ccc(C(C)(C)C)cc2)ncnc1C(=O)N1CCC(N2CC(C)OC(C)C2)CC1` (stereo not shown) [Example 218], the remaining activity at 10 µM was found to be 8% and the Ki came out at 281 nM.
`Cc1c(NCC2CCC(c3nc4ccccc4[nH]3)CC2)ncnc1C(=O)N1CCC(N2CCC(N(C)S(C)(=O)=O)CC2)CC1` (stereo not shown) [Example 159r]: affinity was put at a Ki of 2580 nM.
For the molecule `Cc1c(NCCc2ccc(F)c(F)c2)ncnc1C(=O)N1CCC(N2CCCCC2)CC1` [Example 132], the remaining activity at 10 µM was 31% and the inhibitory constant (Ki) amounted to 672 nM.
In the same order, the values of `Cc1c(NCc2ccc(C(C)C)cc2)ncnc1C(=O)N1CCC(N2CCC(N(C)S(C)(=O)=O)CC2)CC1` [Example 64] are 8% and 65 nM.
In the same order, the values of `Cc1c(NCCc2ccc(Cl)c(Cl)c2)ncnc1C(=O)N1CCC(N2CC[C@@H](C(N)=O)C2)CC1` [Example 232] are 34% and 924 nM.
The molecule `Cc1nc(NC[C@@H]2CC[C@H](c3ccc(C(F)(F)F)cc3)O2)c(C)c(C(=O)N2CCC(N3CCC(N(C)S(C)(=O)=O)CC3)CC2)n1` [Example 159ka] yielded a Ki of 19 nM.
As for `Cc1c(NCc2ccc(Cl)c(Cl)c2)ncnc1C(=O)N1CCC(N2CCC(O)C2)CC1` (stereo not shown) [Example 238], the remaining activity at 10 µM was determined as 14% and the affinity corresponds to a Ki of 239 nM.
Turning to `Cc1c(NCc2cnc3ccccc3c2)ncnc1C(=O)N1CCC(N2CCC(N(C)S(C)(=O)=O)CC2)CC1` [Example 157], the remaining activity at 10 µM stood at 23% and affinity was put at a Ki of 1150 nM.
Regarding `COc1ccc(C2CCCC(CNc3ncnc(C(=O)N4CCC(N5CCC(N(C)S(C)(=O)=O)CC5)CC4)c3C)C2)cc1` (stereo not shown) [Example 159xa], the Ki came to 21 nM.
In the case of `CCS(=O)(=O)N(C)C1CCN(C2CCN(C(=O)c3ncnc(NC[C@H]4CCN(c5ccccc5)C4)c3C)CC2)CC1` [Example 41], the remaining activity at 10 µM stood at 6% and the Ki turned out to be 11 nM.
As to `Cc1c(NCCc2ccc(Cl)c(Cl)c2)ncnc1C(=O)N1CCC(N2CC[C@@H](O)C2)CC1` [Example 165], the remaining activity at 10 µM worked out at 15% and the inhibition constant Ki came out at 222 nM.
In the same order, the values of `Cc1c(NCC2CCN(c3ccccc3)CC2)ncnc1C(=O)N1CCC(N2CCC(O)CC2)CC1` [Example 113] are 46% and 3310 nM.
Consider `Cc1c(NCC2CCc3ccccc3C2)ncnc1C(=O)N1CCC(N2CCC(N(C)S(C)(=O)=O)CC2)CC1` (stereo not shown) [Example 159pb], for which the inhibition constant Ki is 10 nM.
As to `Cc1nc(NCC2COc3ccccc3C2)c(C)c(C(=O)N2CCC(N3CCC(N(C)S(C)(=O)=O)CC3)CC2)n1` (stereo not shown) [Example 79], the remaining activity at 10 µM worked out at 10% and the affinity, expressed as Ki, was 89 nM.
In the same order, the values of `Cc1c(OCc2ccc(C(C)(C)C)cc2)ncnc1C(=O)N1CCC(N2CCC(N(C)S(C)(=O)=O)CC2)CC1` [Example 296] are 3% and 69 nM.
With `Cc1c(NCc2ccc(F)c(Cl)c2)ncnc1C(=O)N1CCC(N2CCC(N(C)S(C)(=O)=O)CC2)CC1` [Example 68], the remaining activity at 10 µM amounted to 7% and the affinity corresponds to a Ki of 98 nM.
For the molecule `CCN(C1CCN(C2CCN(C(=O)c3ncnc(NCc4ccc(Cl)c(Cl)c4)c3C)CC2)CC1)S(C)(=O)=O` [Example 160], the remaining activity at 10 µM was determined as 3% and affinity was put at a Ki of 43 nM.
Turning to `Cc1c(NCc2ccc(C(F)(F)F)cc2)ncnc1C(=O)N1CCC(N2CCC(O)CC2)CC1` [Example 9], the remaining activity at 10 µM is 32% and the affinity, expressed as Ki, was 974 nM.
In the same order, the values of `Cc1c(NCc2ccc(C(C)(C)C)cc2)ncnc1C(=O)N1CCC(N2CCC(c3ccccc3)C2)CC1` (stereo not shown) [Example 210] are 0% and 83 nM.
Take `Cc1cccc([C@H]2CC[C@H](CNc3nc(C)nc(C(=O)N4CCC(N5CCC(N(C)S(C)(=O)=O)CC5)CC4)c3C)O2)c1` [Example 159ja]: the affinity, expressed as Ki, was 18 nM.
Take `Cc1c(NCc2ccc(C(C)(C)C)cc2)ncnc1C(=O)N1CCCC(N2CCC(N(C)S(C)(=O)=O)CC2)CC1` (stereo not shown) [Example 161]: the remaining activity at 10 µM was determined as 30% and the Ki worked out at 2000 nM.
On to `Cc1c(NCc2ccc(C(C)(C)C)cc2)ncnc1C(=O)N1CCC(N2CC[C@@H](C(N)=O)C2)CC1` [Example 265], for which the remaining activity at 10 µM was found to be 23% and the Ki was determined as 462 nM.
As to `Cc1c(NCc2ccc(Cl)c(F)c2)ncnc1C(=O)N1CCC(N2CCC(O)CC2)CC1` [Example 117], the remaining activity at 10 µM was 19% and the Ki was 285 nM.
As for `CNC(=O)C1CCN(C2CCN(C(=O)c3ncnc(NCC4CCCC(c5ccc(Cl)cc5)C4)c3C)CC2)CC1` (stereo not shown) [Example 159ea], the inhibition constant Ki was determined as 7 nM.
Consider `Cc1c(NCCc2ccccc2)ncnc1C(=O)N1CCC(N2CCC(O)CC2)CC1` [Example 99], for which the remaining activity at 10 µM was determined as 32% and the inhibition constant (Ki) came out at 1830 nM.
In the same order, the values of `Cc1c(NCc2ccc(C(C)(C)C)cc2)ncnc1C(=O)N1CCC(N(C)C2CCOCC2)CC1` [Example 275a] are 0% and 29 nM.
For `Cc1c(NCCc2ccc(Cl)cc2)ncnc1C(=O)N1CCC(N2CCCCC2)CC1` [Example 141], the remaining activity at 10 µM amounted to 7% and the Ki was determined as 422 nM.
Take `Cc1c(NCC2COC(c3ccccc3)C2)ncnc1C(=O)N1CCC(N2CCC(N(C)S(C)(=O)=O)CC2)CC1` (stereo not shown) [Example 159fb]: the affinity corresponds to a Ki of 199 nM.
On to `CNC(=O)[C@@H]1CCN(C2CCN(C(=O)c3ncnc(NCc4ccc(C(F)(F)F)c(Cl)c4)c3C)CC2)C1` [Example 77], for which the remaining activity at 10 µM was 27% and the affinity, expressed as Ki, was 650 nM.
As for `COC1CCN(C2CCN(C(=O)c3ncnc(NCC4CCCC(c5ccc(F)cc5)C4)c3C)CC2)CC1` (stereo not shown) [Example 159kb], affinity was put at a Ki of 24 nM.
As to `Cc1c(NCc2ccc(C(C)(C)C)cc2)ncnc1C(=O)N1CCC(NC2CCOc3ccccc32)CC1` (stereo not shown) [Example 228f], the remaining activity at 10 µM came to 1% and affinity was put at a Ki of 15 nM.
In the same order, the values of `Cc1nc(NCC2COc3ccccc3C2)c(C)c(C(=O)N2CCC(N3CCC(NS(C)(=O)=O)CC3)CC2)n1` (stereo not shown) [Example 90] are 10% and 127 nM.
As to `Cc1c(NCC2CCC(c3ccccc3)CC2)ncnc1C(=O)N1CCC(N2CCCCC2)CC1` (stereo not shown) [Example 138], the remaining activity at 10 µM is 6% and affinity was put at a Ki of 145 nM.
In the same order, the values of `Cc1c(NCCc2ccc(C(F)(F)F)cc2)ncnc1C(=O)N1CCC(N2CCC(O)CC2)CC1` [Example 12] are 29% and 664 nM.
As for `Cc1c(NCCc2ccc(Cl)c(Cl)c2)ncnc1C(=O)N1CCC(N2CCC[C@H](C(=O)N(C)C)C2)CC1` [Example 177], the remaining activity at 10 µM is 43% and the affinity, expressed as Ki, was 1250 nM.
Regarding `Cc1c(NCCc2ccc(C(C)(C)C)cc2)ncnc1C(=O)N1CCC(N2CCCCC2)CC1` [Example 129], the remaining activity at 10 µM was 21% and the inhibitory constant (Ki) was 336 nM.
In the same order, the values of `Cc1c(NCCc2ccc(Cl)c(Cl)c2)ncnc1C(=O)N1CCC(N2CCC(O)CC2)CC1` [Example 3] are 14% and 204 nM.
`CNC(=O)C1CCN(C2CCN(C(=O)c3ncnc(NCC4CCCC(c5ccc(F)cc5)C4)c3C)CC2)CC1` (stereo not shown) [Example 159aa] came in with a Ki of 18 nM.
Same read-out and setting: as for `Cc1ccc(C2CCC(CNc3ncnc(C(=O)N4CCC(N5CCC(N(C)S(C)(=O)=O)CC5)CC4)c3C)O2)cc1` (stereo not shown) [Example 159cb], the figure is 39 nM.
Take `CCS(=O)(=O)N(C)C1CCN(C2CCN(C(=O)c3ncnc(NCc4ccc(C)c(Cl)c4)c3C)CC2)CC1` [Example 32]: the remaining activity at 10 µM is 2% and the affinity corresponds to a Ki of 37 nM.
In the same order, the values of `Cc1noc(C2CCN(C3CCN(C(=O)c4ncnc(NCc5ccc(C(C)(C)C)cc5)c4C)CC3)CC2)n1` [Example 213] are 14% and 430 nM.
In the same order, the values of `CNC(=O)C[C@H]1CCCN1C1CCN(C(=O)c2ncnc(NCc3ccc(C(C)(C)C)cc3)c2C)CC1` [Example 214] are 20% and 711 nM.
In the same order, the values of `Cc1c(Oc2ccc(Cl)cc2)ncnc1C(=O)N1CCC(N2CCC(N(C)S(C)(=O)=O)CC2)CC1` [Example 290] are 28% and 1600 nM.
As to `Cc1c(NCc2ccc(C(C)(C)C)cc2)ncnc1C(=O)N1CCC(N2CC(NS(C)(=O)=O)C2)CC1` [Example 223], the remaining activity at 10 µM amounted to 14% and the affinity corresponds to a Ki of 244 nM.
In turn, `Cc1c(NC[C@H]2CC[C@H](c3ccc(Cl)cc3)O2)ncnc1C(=O)N1CCC(N2CCC(N(C)S(C)(=O)=O)CC2)CC1` [Example 159wa] registered a Ki of 33 nM.

In general, Ki refers to a dissociation constant, usually derived from enzyme kinetics or from competition with a known ligand. High values mean a looser hold on the target, low ones a stronger hold on the target.
